# What was measured:
# Format in all cases: in vivo
# [1] = system: barnyardgrass (Echinochloa crus-galli); assay: Test A pre-/postemergence: barnyardgrass; conditions: for Barnyardgrass plant response rating: Postemergence; for Plant response rating, Barnyardgrass: Preemergence
# Procedure, shortened: (§1)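 Soil medium was loam blended with sand; treatments pre- and postemergence were applied concurrently, postemergence at one- to two-leaf stage. Approximately ten days in greenhouse preceded visual comparison with untreated controls, scored 0 (no effect) to 100 (complete control).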
# [2] = system: crabgrass, large (large crabgrass, Digitaria sanguinalis); assay: Test A pre-/postemergence: crabgrass, large; conditions: for Crabgrass, Large plant response rating: Postemergence; for Plant response rating, Crabgrass, Large: Preemergence
# Procedure, shortened: as §1
# [3] = system: pigweed (Amaranthus retroflexus); assay: Test A pre-/postemergence: pigweed; conditions: for Pigweed plant response rating: Postemergence; for Plant response rating, Pigweed: Preemergence
# Procedure, shortened: as §1
# [4] = system: wheat (Triticum aestivum); assay: Test A pre-/postemergence: wheat; conditions: for Wheat plant response rating: Postemergence; for Plant response rating, Wheat: Preemergence
# Procedure, shortened: as §1
# [5] = system: blackgrass (Alopecurus myosuroides); assay: Test C pre-/postemergence: blackgrass
# From the text: (§2) Seeds of plant species selected from blackgrass (Alopecurus myosuroides), bromegrass, downy (downy bromegrass, Bromus tectorum), foxtail, green (green foxtail, Setaria viridis), ryegrass, Italian (Italian ryegrass, Lolium multiflorum), winter wheat (Triticum aestivum), wild oat (Avena fatua), galium (catchweed bedstraw, Galium aparine), bermudagrass (Cynodon dactylon), surinam grass (Brachiaria decumbens), cocklebur (common cocklebur, Xanthium strumarium), corn (Zea mays), large crabgrass (Digitaria sanguinalis), woolly cupgrass (Eriochloa villosa), foxtail, giant (giant foxtail, Setaria faberii), goosegrass (Eleusine indica), johnsongrass (Sorghum halepense), kochia (Kochia scoparia), lambsquarters (Chenopodium album), morningglory (Ipomoea coccinea), nightshade (eastern black nightshade, Solanum ptycanthum), nutsedge, yellow (yellow nutsedge, Cyperus esculentus), pigweed (Amaranthus retroflexus), ragweed (common ragweed, Ambrosia elation), soybean (Glycine max), common (oilseed) sunflower (Helianthus annuus), Russian thistle (Salsola kali) and velvetleaf (Abutilon theophrasti) were planted into a blend of loam soil and sand and treated preemergence with test chemicals formulated in a non-phytotoxic solvent mixture which included a surfactant.
# (§3) At the same time, plants selected from these crop and weed species and also barley (winter barley, Hordeum vulgare), canarygrass (Phalaris minor), chickweed (common chickweed, Stellaria media) windgrass (Apera spica-venti) and deadnettle (henbit deadnettle, Lamium amplexicaule) were planted in pots containing Redi-Earth® planting medium (Scotts Company, 14111 Scottslawn Road, Marysville, Ohio 43041) comprising spaghnum peat moss, vermiculite, wetting agent and starter nutrients and treated with postemergence applications of test chemicals formulated in the same manner. Plants ranged in height from 2 to 18 cm (1- to 4-leaf stage) for postemergence treatments.
# (§4) Treated plants and controls were maintained in a greenhouse for 13 to 15 days, after which time all species were compared to controls and visually evaluated. Plant response ratings, summarized in Table C, are based on a scale of 0 to 100 where 0 is no effect and 100 is complete control. A dash (-) response means no test result.
# corn (Zea mays) = assay: Test C pre-/postemergence: corn
# From the text: as §2, §3, §4
# [6] = system: large crabgrass (Digitaria sanguinalis); assay: Test C pre-/postemergence: large crabgrass
# From the text: as §2, §3, §4
# [7] = system: foxtail, giant (giant foxtail, Setaria faberii); assay: Test C pre-/postemergence: foxtail, giant
# From the text: as §2, §3, §4
# [8] = system: lambsquarters (Chenopodium album); assay: Test C pre-/postemergence: lambsquarters
# From the text: as §2, §3, §4
# [9] = system: nutsedge, yellow (yellow nutsedge, Cyperus esculentus); assay: Test C pre-/postemergence: nutsedge, yellow
# From the text: as §2, §3, §4
# [10] = 125 g ai/ha, 0 to 100 scale, 0 is no effect, 100 is complete control
# [11] = 500 g ai/ha, visual rating on 0 to 100 scale (0 no effect, 100 complete control), approximately ten days
# [12] = 125 g ai/ha, 0 to 100 scale (0 no effect, 100 complete control)
# [13] = 500 g ai/ha, 0 to 100 scale, 0 is no effect, 100 is complete control
# [14] = Postemergence, 31 g ai/ha, scale 0 to 100 (0 no effect, 100 complete control)
# [15] = Postemergence, 62 g ai/ha, scale 0 to 100 (0 no effect, 100 complete control)
# [16] = Postemergence, 125 g ai/ha, scale 0 to 100, 0 no effect, 100 complete control
# [17] = Postemergence, 250 g ai/ha, scale 0 to 100
# [18] = Preemergence, 31 g ai/ha, scale of 0 to 100, 0 is no effect, 100 is complete control
# [19] = Preemergence, 62 g ai/ha, scale 0 to 100, 0 no effect, 100 complete control
# [20] = Preemergence, 125 g ai/ha, scale 0 to 100, 0 no effect, 100 complete control
# [21] = Preemergence, 250 g ai/ha, scale 0 to 100, 0 no effect, 100 complete control
# [22] = Preemergence, 62 g ai/ha, scale of 0 to 100, 0 is no effect, 100 is complete control
smiles,measurement,setting,value
FC(F)Oc1nn(-c2ccc(C(F)(F)F)cc2)nc1Cc1ccnc(C(F)(F)F)c1 [Compound 26],Barnyardgrass plant response rating,[1]; [10],80
same,Barnyardgrass plant response rating,[1]; [11],90
same,"Plant response rating, Barnyardgrass",[1]; [12],90
same,"Plant response rating, Barnyardgrass",[1]; [13],90
same,"Crabgrass, Large plant response rating",[2]; [10],90
same,"Crabgrass, Large plant response rating",[2]; [11],90
same,"Plant response rating, Crabgrass, Large",[2]; [12],100
same,"Plant response rating, Crabgrass, Large",[2]; [13],100
same,Pigweed plant response rating,[3]; [10],100
same,Pigweed plant response rating,[3]; [11],100
same,"Plant response rating, Pigweed",[3]; [12],100
same,"Plant response rating, Pigweed",[3]; [13],100
same,Wheat plant response rating,[4]; [10],60
same,Wheat plant response rating,[4]; [11],80
same,"Plant response rating, Wheat",[4]; [12],50
same,"Plant response rating, Wheat",[4]; [13],80
same,"Plant response rating, Blackgrass",[5]; [14],30
same,"Plant response rating, Blackgrass",[5]; [15],35
same,"Plant response rating, Blackgrass",[5]; [16],70
same,"Plant response rating, Blackgrass",[5]; [17],90
same,"Plant response rating, Blackgrass",[5]; [18],55
same,"Plant response rating, Blackgrass",[5]; [19],90
same,"Plant response rating, Blackgrass",[5]; [20],90
same,"Plant response rating, Blackgrass",[5]; [21],90
same,"Plant response rating, Corn",corn (Zea mays); [14],20
same,"Plant response rating, Corn",corn (Zea mays); [15],20
same,"Plant response rating, Corn",corn (Zea mays); [16],20
same,"Plant response rating, Corn",corn (Zea mays); [17],25
same,"Plant response rating, Corn",corn (Zea mays); [18],0
same,"Plant response rating, Corn",corn (Zea mays); [19],5
same,"Plant response rating, Corn",corn (Zea mays); [20],5
same,"Plant response rating, Corn",corn (Zea mays); [21],5
same,"Plant response rating, Crabgrass, Large",[6]; [14],20
same,"Plant response rating, Crabgrass, Large",[6]; [15],30
same,"Plant response rating, Crabgrass, Large",[6]; [16],40
same,"Plant response rating, Crabgrass, Large",[6]; [17],40
same,"Plant response rating, Crabgrass, Large",[6]; [18],98
same,"Plant response rating, Crabgrass, Large",[6]; [22],98
same,"Plant response rating, Crabgrass, Large",[6]; [20],100
same,"Plant response rating, Crabgrass, Large",[6]; [21],100
same,"Plant response rating, Foxtail, Giant",[7]; [14],25
same,"Plant response rating, Foxtail, Giant",[7]; [15],30
same,"Plant response rating, Foxtail, Giant",[7]; [16],45
same,"Plant response rating, Foxtail, Giant",[7]; [17],60
same,"Plant response rating, Foxtail, Giant",[7]; [18],98
same,"Plant response rating, Foxtail, Giant",[7]; [22],100
same,"Plant response rating, Foxtail, Giant",[7]; [20],100
same,"Plant response rating, Foxtail, Giant",[7]; [21],100
same,"Plant response rating, Lambsquarters",[8]; [14],80
same,"Plant response rating, Lambsquarters",[8]; [15],95
same,"Plant response rating, Lambsquarters",[8]; [16],98
same,"Plant response rating, Lambsquarters",[8]; [17],98
same,"Plant response rating, Lambsquarters",[8]; [18],70
same,"Plant response rating, Lambsquarters",[8]; [22],98
same,"Plant response rating, Lambsquarters",[8]; [20],98
same,"Plant response rating, Lambsquarters",[8]; [21],100
same,"Plant response rating, Nutsedge, Yellow",[9]; [14],10
same,"Plant response rating, Nutsedge, Yellow",[9]; [15],10
same,"Plant response rating, Nutsedge, Yellow",[9]; [16],15
same,"Plant response rating, Nutsedge, Yellow",[9]; [17],15
same,"Plant response rating, Nutsedge, Yellow",[9]; [18],0
same,"Plant response rating, Nutsedge, Yellow",[9]; [22],0
same,"Plant response rating, Nutsedge, Yellow",[9]; [20],0
same,"Plant response rating, Nutsedge, Yellow",[9]; [21],0
